# Source: patent US20220370390A1, “LIQUID ORAL FORMULATION OF BUMETANIDE” (NEUROCHLORE, priority 2019, published 2022)
# Where two headings read alike, the source gives them in different places.
# Tests used:
# ASD core symptoms = test: Phase 2 clinical trial of oral bumetanide formulation; type: in vivo, children and adolescents; conditions: oral liquid formulation twice a day, paediatric population
# Description: A phase 2 clinical trial that was run with various doses of the following oral formulation of bumetanide according to the invention: • Active ingredient: bumetanide at 0.5 mg/ml 1.0 mg/ml 2.0 mg/ml and placebo • Antimicrobial preservative: sodium methylparaben and sodium propylparaben • Buffering agents: NaH2PO4.2H2O and NaH2PO4 • Sweetening agents: Acesulfame potassium and sorbitol • Solvent: water The pH is 6.5. The liquid oral formulation is stored in an amber glass bottle with polypropylene/low density polyethylene child-resistant and tamper-evident cap. A 1 ml dosing pipette, consisting of a polystyrene plunger and a low-density polyethylene barrel and piston was used to administer directly the solution into the mouth. The posology was an oral administration of the liquid formulation twice a day for a paediatric population.
# [1] = cited from earlier work
compound,measurement,setting,value
"CCCCNc1cc(C(=O)O)cc(S(N)(=O)=O)c1Oc1ccccc1 [Bumetanide, 3-(Butylamino)-4-phenoxy-5-sulfamoylbenzoic acid]",severity of ASD core symptoms,ASD core symptoms,can reduce the severity of ASD core symptoms
same,solubility,[1]; in aqueous buffers,sparingly soluble
same,solubility,[1]; in dimethyl formamide (DMF),33 mg/mL
same,solubility,[1]; in ethanol,14 mg/mL
